In brackets after ≈: the same amount, converted by molar mass. Read-outs that look alike come from different tables or passages of the source.
What was measured:
Assay type in all cases: cell-based
[1] = test system: B. anthracis; assay: microbe, parasite or virus in culture; conditions: Bacillus anthracis
[2] = test system: Staphylococcus saprophyticus
[3] = test system: Bacillus cereus
[4] = test system: E. coli; assay: Modified NCCLS microbroth dilution MIC assay; conditions: Escherichia coli
[5] = test system: Haemophilus influenzae; assay: MIC100, clinical isolates of hospital-acquired pathogens (Table 7); conditions: Mueller Hinton+NAD+yeast extract+hematin, in µg/mL
[6] = test system: Staphylococcus aureus
[7] = test system: Bacillus subtilis
[8] = test system: Aspergillus fumigatus; assay: Antifungal MIC/MFC, NCCLS M38-A
Experimental: (§1) MIC endpoints were determined for A. fumigatus, P. funiculosum, C. globosum and T. virens according to current NCCLS guidelines defined for testing A. fumigatus (NCCLS M38-A, 2002). […] Amphotericin B was included in the screen with C. albicans as a positive control. All MIC testing was done in 96 well microtiter panels using RPMI 1640 (with glutamine and without bicarbonate) broth as a growth media. Incubation was at 35° C., and growth was read at 48, 72, (and for some slow growing fungal species, 96 hours). […] MFC (minimal fungicidal concentrations) endpoints were calculated using a modified methodology based on the NCCLS defined methodology for measuring minimal bactericidal concentrations (MBC). Experimentation to calculate MFCs was undertaken only for those organisms for which an MIC endpoint was satisfactorily calculated. MFCs are defined as the concentration required to reduce the number of viable organisms by at least 90%.

[9] = test system: Trichoderma virens; assay: Antifungal MIC/MFC, NCCLS M38-A
Experimental: as §1

[10] = test system: Chaetomium globosum; assay: Antifungal MIC/MFC, NCCLS M38-A
Experimental: as §1

[11] = test system: Penicillium funiculosum; assay: Antifungal MIC/MFC, NCCLS M38-A
Experimental: as §1

[12] = concentration reducing viable organisms by at least 90%

NCCc1cc(Br)cc(C#Cc2cccc(C#Cc3cc(Br)cc(CCN)c3)c2)c1 [Compound 3]
MIC ([1]; read-out: MIC100 B. anthracis 127): 1 µg/mL (≈ 1.91 µM) | MIC ([1]; read-out: MIC100 B. anthracis 1099): 1 µg/mL (≈ 1.91 µM) | MIC ([1]; read-out: MIC100 B. anthracis 7611R): 2 µg/mL (≈ 3.83 µM) | MIC ([1]; read-out: MIC100 B. anthracis A3): 1 µg/mL (≈ 1.91 µM) | MIC ([1]; read-out: MIC100 B. anthracis A19): 1 µg/mL (≈ 1.91 µM) | MIC ([1]; read-out: MIC100 B. anthracis A58): 1 µg/mL (≈ 1.91 µM) | MIC ([1]; read-out: MIC100 B. anthracis A60): 1 µg/mL (≈ 1.91 µM) | MIC ([1]; read-out: MIC100 B. anthracis A73): 1 µg/mL (≈ 1.91 µM) | MIC ([1]; read-out: MIC100 B. anthracis A74): 2 µg/mL (≈ 3.83 µM) | MIC ([1]; read-out: MIC100 B. anthracis AC1): 1 µg/mL (≈ 1.91 µM) | MIC ([1]; read-out: MIC100 B. anthracis RA3R): 1 µg/mL (≈ 1.91 µM) | MIC ([1]; read-out: MIC100 B. anthracis Vollum): 2 µg/mL (≈ 3.83 µM) | MIC100 Staphylococcus saprophyticus [2]: 0.8 µg/mL (≈ 1.53 µM) | MIC100 Bacillus cereus [3]: 1.7 µg/mL (≈ 3.25 µM) | MIC90 ([4]; read-out: MIC90 E. Coli): 0.8 µg/mL (≈ 1.53 µM) | MIC ([4]; 18 to 20 hours incubation, OD 600 nm): 0.8 µg/mL (≈ 1.53 µM) | MBC ([4]; E. coli D31, defined as >3 log reduction in bacterial titre): 0.8 µg/mL (≈ 1.53 µM) | mic (MIC100) Haemophilus influenzae [5]: 4 | MIC100 Staphylococcus aureus [6]: 1.7 µg/mL (≈ 3.25 µM) | MIC100 Bacillus subtilis [7]: 1.7 µg/mL (≈ 3.25 µM) | MIC Aspergillus fumigatus ([8]; RPMI 1640, 35° C.): 32/32 | MFC Aspergillus fumigatus [8, 12]: 32/32 | MIC Trichoderma virens ([9]; RPMI 1640, 35° C.): 32/32 | MFC Trichoderma virens [9, 12]: 32/32 | MIC Chaetomium globosum ([10]; RPMI 1640, 35° C.): 0.5 µg/mL (≈ 0.957 µM) | MFC Chaetomium globosum [10, 12]: 8 µg/mL (≈ 15.3 µM) | MIC Penicillium funiculosum ([11]; RPMI 1640, 35° C.): 1 µg/mL (≈ 1.91 µM) | MFC Penicillium funiculosum [11, 12]: 2 µg/mL (≈ 3.83 µM)
